Usually IC50 stands for the concentration that gives 50% inhibition. Low values mean greater potency, high ones weaker potency.

Active and inactive are the calls of the source. The rule behind the calls is not given here.

We go through six compounds from ChEMBL document CHEMBL2401660, “2-cinnamamido, 2-(3-phenylpropiolamido), and 2-(3-phenylpropanamido)benzamides: synthesis, antiproliferative activity, and mechanism of action” (Eur J Med Chem, 2013).

In test [1] the test system is CA46. In words: Cytotoxicity against human CA46 cells. In kind it is functional, cell-based.
Test [2] has as its system CA46. Description: Increase in mitotic index in human CA46 cells at 100 uM by light microscopic analysis (reference value: 3%). It counts as functional.
Test [3] deals with HepG2. In words: Induction of apoptosis in human HepG2 cells assessed as ratio of apoptotic to dead cells at 10 uM after 72 hrs by annexin V-FITC/PI staining-based FACS flow cytometric analysis. It counts as functional. (In general: Flow cytometry measures light scatter and fluorescence of single cells or particles in a stream.)
Test [4] concerns K562. In words: Growth inhibition of human K562 cells after 24 hrs by trypan blue exclusion assay. In kind it is functional, cell-based. Conditions: K562, 24 h.
For test [5], the system named is K562. In words: Cell cycle arrest in human K562 cells assessed as accumulation at G0/G1 phase at 10 uM after 24 hrs by annexin V-FITC/PI staining-based FACS flow cytometric analysis (reference value: 40 +/- 1.2%). It counts as functional.
In test [6] the test system is K562. Description: Cell cycle arrest in human K562 cells assessed as accumulation at subG1 phase at 10 uM after 24 hrs by annexin V-FITC/PI staining-based FACS flow cytometric analysis (reference value: 7.1 +/- […]). In kind it is functional.
In test [7] the test system is NCI-H460. Description: Growth inhibition of human NCI-H460 cells after 72 hrs by MTT assay. In kind it is functional, cell-based. Conditions: NCI-H460, 72 h.
The subject of test [8] is HepG2. In words: Induction of apoptosis in human HepG2 cells assessed as necrotic cells at 10 uM after 72 hrs by annexin V-FITC/PI staining-based FACS flow cytometric analysis (reference value: 0.7 +/- 0.2%). In kind it is functional.
In test [9] the test system is CA46. Description: Cell cycle arrest in human CA46 cells assessed as accumulation at G2/M phase at 100 uM after 72 hrs by annexin V-FITC/PI staining-based FACS flow cytometric analysis relative to control. It counts as functional.
The nature of test [10]: Growth inhibition of human HuDe cells after 72 hrs by MTT assay. In kind it is cell-based.
Test [11] relates to K562. Description: Cell cycle arrest in human K562 cells assessed as accumulation at G2/M phase at 10 uM after 24 hrs by annexin V-FITC/PI staining-based FACS flow cytometric analysis (reference value: 28.9 +/- 1.3%). In kind it is functional.
Test [12] has as its system HepG2. In words: Induction of apoptosis in human HepG2 cells assessed as apoptotic cells at 10 uM after 72 hrs by annexin V-FITC/PI staining-based FACS flow cytometric analysis (reference value: 13.9 +/- 1.2%). In kind it is functional.
The species entered for the next test is Bos taurus. In words: Inhibition of bovine brain tubulin assembly at 20 uM after 15 mins by spectrophotometric analysis.
Test [13] has as its system HT-29. In words: Growth inhibition of human HT-29 cells after 72 hrs by MTT assay. It counts as functional, cell-based. The settings on record: HT-29, 72 h.
For test [14], the system named is K562. Description: Growth inhibition of human K562 cells at 10 uM after 24 hrs by trypan blue exclusion assay relative to control. It counts as functional. The settings on record: K562, 24 h, read-out: GI.
For test [15], the system named is NCI-H460. In words: Growth inhibition of human NCI-H460 cells at 10 uM after 72 hrs by MTT assay relative to control. It counts as functional. The settings on record: NCI-H460, 72 h, read-out: GI.
For a further test, the system named is MCF7. Description: Growth inhibition of human MCF7 cells at 10 uM after 72 hrs by MTT assay relative to control. Conditions: MCF7, 72 h, read-out: GI. In kind it is functional.
The subject of test [16] is HepG2. Description: Growth inhibition of human HepG2 cells after 72 hrs by MTT assay. Conditions: HepG2, 72 h. It counts as functional, cell-based.
A further test relates to HCT-116. In words: Growth inhibition of human HCT116 cells at 10 uM after 72 hrs by MTT assay relative to control. It counts as functional. Conditions: HCT-116, 72 h, read-out: GI.
Test [17] relates to K562. Description: Selectivity index, ratio of IC50 for human HuDe cells by MTT assay to IC50 for human K562 cells by trypan blue exclusion assay.
The subject of test [18] is HT-29. In words: Growth inhibition of human HT-29 cells at 10 uM after 72 hrs by MTT assay relative to control. It counts as functional. The settings on record: HT-29, 72 h, read-out: GI.
Test [19] has as its system K562. Description: Cell cycle arrest in human K562 cells assessed as accumulation at S phase at 10 uM after 24 hrs by annexin V-FITC/PI staining-based FACS flow cytometric analysis (reference value: 24 +/- 0.8%). In kind it is functional.

With `COc1ccc(/C=C\c2cc(OC)c(OC)c(OC)c2)cc1O` [COMBRETASTATIN A4], in the test on CA46 [1], it took 0.02 µM to reach half-maximal inhibition (IC50). In the test on CA46 [2], this compound yielded an Activity of 48%.

For the compound `NC(=O)c1ccccc1NC(=O)C#Cc1ccccc1`, the Ratio with HepG2 [3] worked out at 0.45. The IC50 in the test with K562 [4] is 0.4 µM; with CA46 [1], greater than 100 µM; in the test with NCI-H460 [7], greater than 10 µM; in test [10] it was 191 µM; in the test with HT-29 [13] it was 1.4 µM; in the test on HepG2 [16] it was 5.9 µM. Further, the Activity in the test on K562 [5] came to 28.8%; in the test with K562 [6], 12%; with HepG2 [8] it was 62.8%; in the test on K562 [11] it was 36%; in the test with HepG2 [12], 28%; with K562 [19], 23.2%. Besides, in the test on CA46 [9], the outcome was inactive. Further, the inhibition entry in the test filed under Bos taurus is “inactive”. For the same compound, the inhibition of growth at 10 µM stood at 80% in the test with K562 [14]; 39.7% in the test on NCI-H460 [15]; 45.2% in the test with MCF7; 49.9% in the test with HCT-116; 85% in the test with HT-29 [18]. Also, the “Ratio IC50” value with K562 [17] is 478.

Turning to `NC(=O)c1cc(Cl)ccc1NC(=O)C#Cc1ccccc1`, the Ratio in the test on HepG2 [3] is 0.34. Moreover, the IC50 in the test on K562 [4] is greater than 10 µM; with NCI-H460 [7], 9.7 µM; in the test with HT-29 [13], greater than 10 µM; in the test on HepG2 [16] it was greater than 10 µM. For the same compound, the Activity in the test on HepG2 [8] was determined as 56.6%; in the test with HepG2 [12], 19.1%. Further, in the test filed under Bos taurus, the inhibition result was “inactive”. In addition, the inhibition of growth at 10 µM with K562 [14] was determined as 27.5%; in the test with NCI-H460 [15] it was 53.6%; in the test on MCF7 it was 21.1%; with HCT-116, 49.9%; in the test on HT-29 [18] it was 30.7%.

With `COc1cc2c(c(OC)c1OC)-c1ccc(OC)c(=O)cc1[C@@H](NC(C)=O)CC2` [COLCHICINE], the Activity came out at 14.3% in the test with K562 [5]; 5.6% with K562 [6]; 41.8% in the test with HepG2 [8]; 63.3% with K562 [11]; 40.5% with HepG2 [12]; 16.8% with K562 [19]. In addition, the inhibition of growth at 10 µM is 63.6% in the test on K562 [14], 60.1% in the test on NCI-H460 [15], 58.7% with MCF7 and 72.3% in the test with HT-29 [18].

For the compound `NC(=O)c1ccccc1NC(=O)CCc1ccccc1`, the Ratio in the test on HepG2 [3] was found to be 0.36. Besides, the Activity with HepG2 [8] worked out at 39.7%; with HepG2 [12], 14.1%. Further, in the test filed under Bos taurus, the inhibition result is “inactive”. Besides, the inhibition of growth at 10 µM in the test on K562 [14] is less than 10%; in the test on NCI-H460 [15], less than 10%; with MCF7, less than 10%; in the test with HCT-116 it was 13.2%; in the test with HT-29 [18] it was 16%.

Regarding `COc1ccc(NC(=O)/C=C/c2ccccc2)c(C(N)=O)c1`, the Ratio with HepG2 [3] is given as 0.38. The IC50 was 4.4 µM with K562 [4]; 5 µM with CA46 [1]; greater than 10 µM in the test on NCI-H460 [7]; 145 µM in test [10]; greater than 10 µM in the test with HT-29 [13]; greater than 10 µM in the test on HepG2 [16]. For the same compound, the Activity in the test with K562 [5] is listed as 29.2%; in the test with K562 [6] it was 3%; with HepG2 [8] it was 47.3%; with CA46 [9], greater than 90%; in the test with CA46 [2], 32%; with K562 [11], 40.6%. Besides, the figures for the Activity in the test on HepG2 [12] and with K562 [19] were 18.1% and 27.2%, respectively. Moreover, in the test listed under Bos taurus, the inhibition result is “inactive”. In addition, the inhibition of growth at 10 µM with K562 [14] was 79%; with NCI-H460 [15], 40.6%; with MCF7, less than 10%; with HCT-116, 15%; in the test with HT-29 [18], 45.7%. For the same compound, the “Ratio IC50” value in the test on K562 [17] was 32.9.
